Measured values from patent US8835456B1, “NS5A inhibitors useful for treating HCV” (Achillion Pharmaceuticals, Inc., priority 2011, dated 2014).

Test system: Hepatitis C replicon
Assay: HCV replicon replication assay (NPT level by captured ELISA)
Format: cell-based
Settings: Hepatitis C virus, Huh-7, 72 h
Procedure: Compounds claimed herein are tested for the ability to inhibit viral replication of the Hepatitis C replicon in cultured cells in which the HCV replicon construct has been incorporated. The HCV replicon system was described by Bartenschlager, et. al (Science, 285, pp. 110-113 (1999)). The replicon system is predictive of in vivo anti-HCV activity; compounds that are active in humans uniformly evidence activity in the replicon assay.
In this assay HCV replicon containing cells are treated with different concentrations of the test compound to ascertain the ability of the test compound to suppress replication of the HCV replicon. As a positive control, HCV replicon-containing cells are treated with different concentrations of interferon alpha, a known inhibitor of HCV replication. The replicon assay system includes Neomycin Phosphotransferase (NPT) as a component of the replicon itself in order to detect the transcription of replicon gene products in the host cell. Cells in which the HCV replicon is actively replicating have high levels of NPT; the level of NPT is proportional to HCV replication. […] The NPT level of each sample is measured using a captured ELISA.
A protocol for testing compounds for the ability to inhibit viral replication of the Hepatitis C replicon cultured cells in which the replicon construct has been incorporated, follows.
The HCV genome consists of a single ORF that encodes a 3000 amino acid polyprotein. The ORF is flanked on the 5′ side by an untranslated region that serves as an internal ribosome entry site (IRES) and at the 3′ side by a highly conserved sequence necessary for viral replication (3′-NTR). The structural proteins, necessary for viral infection, are located near the 5′ end of the ORF. The non-structural proteins, designated NS2 to NS5B comprise the remainder of the ORF. […]
HCV replicon-containing cells are examined under a microscope to ensure that cells growing well. […] The cells are counted. […]

Structure (SMILES) | EC50 [nM]
COC(=O)N[C@H](C(=O)N1C2CCC(C2)[C@H]1c1nc(-c2ccc(-c3ccc(-c4c[nH]c([C@@H]5CC6CCCCC6N5C(=O)[C@@H](NC(=O)OC)C(C)C)n4)cc3)nc2)c[nH]1)C(C)C (stereo partly drawn) [Compound 14] | < 10
COC(=O)N[C@H](C(=O)N1C2CCC(C2)[C@H]1c1nc(-c2ccc(-c3ccc(-c4c[nH]c([C@@H]5CC6CCCCC6N5C(=O)[C@@H](NC(=O)OC)C(C)C)n4)cc3)s2)c[nH]1)C(C)C (stereo partly drawn) [Compound 15] | < 10
COC(=O)N[C@H](C(=O)N1C2CCC(C2)[C@H]1c1nc(-c2ccc(-c3ccc(-c4c[nH]c([C@@H]5CC6CCCCC6N5C(=O)[C@@H](NC(=O)OC)C(C)C)n4)cc3)cc2)c[nH]1)C(C)C (stereo partly drawn) [Compound 10] | < 10
